Results: US20240368676A1, “KITS FOR DETECTING ONE OR MORE TARGET ANALYTES IN A SAMPLE AND METHODS OF MAKING AND USING THE SAME” (Meso Scale Technologies, LLC., priority 2020, published 2024)
Where two headings read alike, the source gives them in different places.

What was measured:
[1] = test system: rs1801270 (CDKN1A c.93C>A); assay: Lung cancer SNP panel OLA on PCR-amplified cell line DNA; conditions: PCR-amplified DNA from HIL-60 cell line
Experimental: (§1) The probe sequences used for each mutation are provided in Tables 42 (upstream) and 43 (downstream), below.
(§2) To test the probes for each mutation, probes from either the 1st or 2nd strand were chosen and tested against DNA extracted from a HIL-60 cell line. DNA was extracted using the Gentra Puregene Cell Kit (Qiagen Cat #158388) and 10 ng DNA was amplified using the MyTaq HS Master Mix (Bioline Cat #BIO-25045) and assay-specific PCR forward and revers primers, shown in Tables 44 and 45, respectively.
(§3) Following amplification, OLA was performed as described in Example 7 and the frequency of WT and Mutant alleles was determined.

[2] = test system: spot with the capture oligonucleotide with SEQ ID NO: 5; assay: Comparison of blocking conditions for preparing arrays (cross-reactivity from cross-contamination); assay type: binding
Experimental: Blocking conditions for removing excess capture oligonucleotides from arrays were compared. Plates with printed arrays were prepared as described in Example 2 and blocked and washed as described in Example 4, except for varying the composition of the blocking solution. Specificity of the arrays was then characterized as described in Example 4.

miR-122 [3] = assay: miRNA detection using an RNase protection assay (chimeric DNA/RNA probe, ECL); conditions: synthetic miR-122 miRNA
Source text: An RNase protection assay can be used for miRNA quantification. In the assay, a DNA/RNA chimeric probe is used that contains an oligonucleotide tag sequence that is complementary a capture oligonucleotide sequence and a miRNA complementary sequence. The oligonucleotide tag sequence can be a single stranded DNA (ssDNA) sequence included on the 5′ end of the chimeric probe and the miRNA complementary sequence can be a single stranded RNA (ssRNA) sequence at the 3′ end of the chimeric probe, along with a terminal 3′ biotin.
Briefly, miRNA can be detected as follows: • 1). Hybridize miRNA to the chimeric probe in a thermal cycler to form a hybridization product; • 2). Block assay plate using one or more known blocking agent; • 3). Add hybridization product with formamide to the blocked assay plate under conditions in which the oligonucleotide tag sequence of the hybridization product can hybridize to the capture oligonucleotides on the assay plate. Incubate at 37° C.; • 4). Perform on-plate digestion of ssRNA with RNase A or RNase I (30° C.-37° C.) to digest the following: • a). ssRNA that has not been hybridized to the probe; • b). Probe hybridized to the plate without the complementary miRNA; and • c). […] Add Read Buffer B to assay plate and measure ECL signal generation with MSD Imager; and • 7). Compare the results against a calibration curve for quantification. […]

miR-122 [4] = conditions: reported by Rissin et al., PLOS One (2017); cited from earlier work
rs3842 (ABCB1 c.*193A>G) = assay: Lung cancer SNP panel OLA on PCR-amplified cell line DNA; conditions: PCR-amplified DNA from HIL-60 cell line
Experimental: as §1, §2, §3

[5] = test system: rs17879961 (CHEK2 c.599T>C); assay: as above; conditions: PCR-amplified DNA from HIL-60 cell line
Experimental: as §1, §2, §3

[6] = test system: rs8034191 (LOC123688 or HYKK c.337+256T>C); assay: as above; conditions: PCR-amplified DNA from HIL-60 cell line
Experimental: as §1, §2, §3

rs1051730 (CHRNA3 D398N) = assay: as above; conditions: PCR-amplified DNA from HIL-60 cell line
Experimental: as §1, §2, §3

rs2273535 (AURKA F31J) = assay: as above; conditions: PCR-amplified DNA from HIL-60 cell line
Experimental: as §1, §2, §3

[7] = test system: rs212090 (ABCC1 c.*866T>A); assay: as above; conditions: PCR-amplified DNA from HIL-60 cell line
Experimental: as §1, §2, §3

rs1801133 (MTHFR C677T) = assay: as above; conditions: PCR-amplified DNA from HIL-60 cell line
Experimental: as §1, §2, §3

Compound: CDKN1A rs1801270 (DNA TCGAAGTTCCATCGCTCAC; listed as DNA, chemistry not given here)
- % Mutant [1]: 0.1%
- % Wild-type [1]: 99.9%
- Genotype [1]: Homozygous (WT) (Measured mutation percentages <20% were classified as homozygous wildtype samples)

Compound: N[C@@H](CS)C(=O)O [cysteine]
- cross-reactivity ([2]; cysteine added to the Tris/Triton formulation): ≤ 0.01%
- blocking effectiveness ([2]; cysteine concentrations ranging from 5 to 50 to 500 mM, separate experiments): effective at blocking

Compound: miR-122: synthetic miR-122 miRNA, target sequence in Table 47 (UGGAGUGUGACAAUGGUGUUUG; listed as RNA, chemistry not fully specified; the letters are possibly those of the target site)
- concentration detected (miR-122 [3]): 160 fM
- concentration detected (miR-122 [4]): 500 fM

Compound: ABCB1 rs3842 (DNA AGCAAGGCAGTCAGTTACAG; listed as DNA, chemistry not given here)
- % Mutant (rs3842 (ABCB1 c.*193A>G)): 52.4%
- % Wild-type (rs3842 (ABCB1 c.*193A>G)): 47.6%
- Genotype (rs3842 (ABCB1 c.*193A>G)): Heterozygous (mutation percentages between 30% and 70% were classified as heterozygous (50% mutation))

Compound: CHEK2 rs17879961 (DNA TCCATTGCCACTGTGATCTTC; listed as DNA, chemistry not given here)
- % Mutant [5]: 0.8%
- % Wild-type [5]: 99.2%
- Genotype [5]: Homozygous (WT) (Measured mutation percentages <20% were classified as homozygous wildtype samples)

Compound: LOC123688 rs8034191 (DNA CCCTGATTTCCACAAGTCC; listed as DNA, chemistry not given here)
- % Mutant [6]: 1.0%
- % Wild-type [6]: 99.0%
- Genotype [6]: Homozygous (WT) (Measured mutation percentages <20% were classified as homozygous wildtype samples)

Compound: CHRNA3 rs1051730 (DNA CGGATGTACAGCGAGTATGTG; listed as DNA, chemistry not given here)
- % Mutant (rs1051730 (CHRNA3 D398N)): 0.1%
- % Wild-type (rs1051730 (CHRNA3 D398N)): 99.9%
- Genotype (rs1051730 (CHRNA3 D398N)): Homozygous (WT) (Measured mutation percentages <20% were classified as homozygous wildtype samples)

Compound: AURKA rs2273535 (DNA CTTCCATTCTAGGCTACAGCTC; listed as DNA, chemistry not given here)
- % Mutant (rs2273535 (AURKA F31J)): 0.5%
- % Wild-type (rs2273535 (AURKA F31J)): 99.5%
- Genotype (rs2273535 (AURKA F31J)): Homozygous (WT) (Measured mutation percentages <20% were classified as homozygous wildtype samples)

Compound: ABCC1 rs212090 (DNA AGGCCATCTCCTTAATATTTACCC; listed as DNA, chemistry not given here)
- % Mutant [7]: 48.6%
- % Wild-type [7]: 51.4%
- Genotype [7]: Heterozygous (mutation percentages between 30% and 70% were classified as heterozygous (50% mutation))

Compound: MTHFR rs180113 (DNA CTTCACAAAGCGGAAGAATGTG; listed as DNA, chemistry not given here)
- % Mutant (rs1801133 (MTHFR C677T)): 42.8%
- % Wild-type (rs1801133 (MTHFR C677T)): 57.2%
- Genotype (rs1801133 (MTHFR C677T)): Heterozygous (mutation percentages between 30% and 70% were classified as heterozygous (50% mutation))
